The results in this text go back to ChEMBL document CHEMBL1150917, “Chemical constituents from Cassytha filiformis II” (1998).

The structures appear in SMILES notation. Activity calls are given as the source filed them. The rule behind the calls is not given here.

In test [1] the test system is Platelet. In words: Inhibition of PAF-induced platelet aggregation in rabbit platelet at 50 uM relative to control. Format: functional, cell-based. The conditions noted are these: Oryctolagus cuniculus.
For test [2], the system named is Platelet. In words: Inhibition of arachidonic acid-induced platelet aggregation in rabbit platelet at 100 uM relative to control. Also on record: scale not given: the % may be the effect or the level left. Format: functional, Oryctolagus cuniculus.
The test system of test [3] is Platelet. As to the kind of experiment: Inhibition of collagen-induced platelet aggregation in rabbit platelet at 100 uM relative to control. Also on record: scale not given: the % may be the effect or the level left. Format: functional, Oryctolagus cuniculus.
For test [4], the system named is Platelet. In words: Inhibition of PAF-induced platelet aggregation in rabbit platelet at 100 uM relative to control. Also on record: scale not given: the % may be the effect or the level left. Format: functional, Oryctolagus cuniculus.
For test [5], the system named is Platelet. In words: Inhibition of ADP-induced platelet aggregation in rabbit platelet at 50 uM relative to control. Format: functional, cell-based. The conditions noted are these: Oryctolagus cuniculus.
The subject of test [6] is Platelet. In words: Inhibition of arachidonic acid-induced platelet aggregation in rabbit platelet at 50 uM relative to control. Format: functional, cell-based. The conditions noted are these: Oryctolagus cuniculus.
In test [7] the test system is Platelet. As to the kind of experiment: Inhibition of ADP-induced platelet aggregation in rabbit platelet at 100 uM relative to control. Format: functional, Oryctolagus cuniculus. Also on record: scale not given: the % may be the effect or the level left.
In test [8] the test system is Platelet. As to the kind of experiment: Inhibition of collagen-induced platelet aggregation in rabbit platelet at 50 uM relative to control. The following applies: Oryctolagus cuniculus. Format: functional, cell-based.
Test [9] relates to Platelet. As to the kind of experiment: Inhibition of ADP-induced platelet aggregation in rabbit platelet at 25 uM relative to control. Format: functional, Oryctolagus cuniculus. Also noted: scale not given: the % may be the effect or the level left.
Test [10] deals with Platelet. As to the kind of experiment: Inhibition of PAF-induced platelet aggregation in rabbit platelet at 25 uM relative to control. Format: functional, Oryctolagus cuniculus. Also noted: scale not given: the % may be the effect or the level left.
In test [11] the test system is Platelet. In words: Inhibition of collagen-induced platelet aggregation in rabbit platelet at 25 uM relative to control. Format: functional, Oryctolagus cuniculus. Also noted: scale not given: the % may be the effect or the level left.
The subject of test [12] is Platelet. In words: Inhibition of arachidonic acid-induced platelet aggregation in rabbit platelet at 25 uM relative to control. Format: functional, Oryctolagus cuniculus. Also on record: scale not given: the % may be the effect or the level left.
Test [13] has as its system Platelet. In words: Inhibition of arachidonic acid-induced platelet aggregation in rabbit platelet at 20 uM relative to control. Format: functional, cell-based. The following applies: Oryctolagus cuniculus.

Turning to `COc1cc2c(cc1O)C[C@@H]1NCCc3cc4c(c-2c31)OCO4` [ACTINODAPHNINE], the result in the test with Platelet [1], with Platelet [5], with Platelet [6] and with Platelet [8] was Active. Besides, the Activity in the test on Platelet [2], in the test with Platelet [3], in the test on Platelet [4] and in the test with Platelet [7] was 0% in each case.

On to `CC(=O)Oc1ccccc1C(=O)O` [ASPIRIN], for which the Activity in the test on Platelet [9] was 77.9%; with Platelet [10], 90.5%; with Platelet [11], 87.8%; in the test with Platelet [12], 0%.

For `COc1cc2c(cc1O)C[C@H]1c3c(cc4c(c3-2)OCO4)CCN1C` [CASSYTHICINE], the Activity with Platelet [2] is 0%; in the test with Platelet [3], 0%; in the test on Platelet [4], 68.1%; in the test with Platelet [7] it was 0%. Besides, the result with Platelet [13] was Active.

`COC(=O)N1CCc2cc3c(c4c2[C@@H]1Cc1cc(O)c(OC)cc1-4)OCO3` [CATHAFILINE]: the outcome in the test on Platelet [1], in the test on Platelet [5], in the test on Platelet [6] and in the test on Platelet [8] was Active. The Activity in the test on Platelet [2] is 0%.

As for `COC(=O)N1CCc2c(OC)c3c(c4c2[C@@H]1Cc1cc(O)c(OC)cc1-4)OCO3` [CATHAFORMINE], the outcome in the test on Platelet [1], in the test on Platelet [5], in the test with Platelet [6] and with Platelet [8] was Active. Also, the Activity with Platelet [2] worked out at 0%; with Platelet [3], 7.6%; in the test on Platelet [4] it was 61.5%.

Take `COc1cc2c(cc1OC)-c1c3c(c(OC)c4c1[C@H](C2)N(C)CC4)OCO3` [OCOTEINE]: the Activity with Platelet [2] was 0%; with Platelet [3], 0%; with Platelet [4] it was 87.7%.

Turning to `COc1cc2c(cc1OC)-c1c(OC)c(O)cc3c1[C@H](C2)N(C)CC3` [PREDICENTRINE], the Activity in the test with Platelet [2] worked out at 0%; in the test on Platelet [3], 0%; in the test on Platelet [4] it was 74%.
